Experimental data reported in US20230013669A1, “Antibacterial Treatment Using a Cannabinoid and an Active Agent” (priority 2019, published 2023).
Where “and” joins values, the source holds several entries; their conditions need not be identical. Equal values may be shown once. Read-outs that look alike come from different tables or passages of the source.

System: Klebsiella pneumoniae ATCC 700603
Experiment: Synergy of cannabidiol with cell-wall disrupting agent (CBD MIC in combination, FICI)
Format: cell-based
Conditions: for FICI: CBD MIC taken as 256 μg/mL; for FICI range: CBD with Spero SPR206; for MIC: Klebsiella pneumoniae
Protocol: Methods were as for Example 1. Cannabidiol was tested in combination with cefotetan.
Methods were as for Example 1. Cannabidiol was tested in combination with aztreonam.
Methods were as for Example 1. Cannabidiol was tested in combination with cefepime.
Methods were as for Example 1. Cannabidiol was tested in combination with octapeptin C4.
Methods were as for Example 1. Cannabidiol was tested in combination with Spero SPR206. The experiments were carried out three times.

C=C(C)C1CCC(C)=CC1c1c(O)cc(CCCCC)cc1O (stereo not shown) [Cannabidiol, 2-[3-methyl-6-(1-methylethenyl)-2-cyclohexen-1-yl]-5-pentyl-1,3-benzenediol]
FICI (CBD with Octapeptin C4 at 0.25 μg/mL): 1.0625 | FICI (CBD with Octapeptin C4 at 0.5 μg/mL): 1.0625 | FICI (CBD with Octapeptin C4 at 2 μg/mL): 1.5 | FICI (CBD with Octapeptin C4 at […]): 1.016 | FICI range (1st of 3 experiments): 0.52-16 | FICI range (2nd of 3 experiments): 0.28-1.12 | FICI range (3rd of 3 experiments): 1.25-8 | FICI (CBD with Spero SPR206 at 0.007 μg/mL, 2nd of 3 experiments): 1.014 | FICI (CBD with Spero SPR206 at 0.015 μg/mL, 2nd of 3 experiments): 1.03 | FICI (CBD with Spero SPR206 at 0.031 μg/mL, 2nd of 3 experiments): 1.062 | FICI (CBD with Spero SPR206 at 0.062 μg/mL, 2nd of 3 experiments): 1.124 | FICI (CBD with Spero SPR206 at 0.25 μg/mL, 1st of 3 experiments): 1 | FICI (CBD with Spero SPR206 at 0.25 μg/mL, 2nd of 3 experiments): 0.5039 | FICI (CBD with Spero SPR206 at 0.25 μg/mL, 3rd of 3 experiments): 1.5 | FICI (CBD with Spero SPR206 at 0.5 μg/mL, 1st of 3 experiments): 2 | FICI (CBD with Spero SPR206 at 0.5 μg/mL, 3rd of 3 experiments): 2 | FICI (CBD with Spero SPR206 at 1 μg/mL, 1st of 3 experiments): 4 | FICI (CBD with Spero SPR206 at 1 μg/mL, 3rd of 3 experiments): 3 | FICI (CBD with Spero SPR206 at 2 μg/mL, 1st of 3 experiments): 8 | FICI (CBD with Spero SPR206 at 2 μg/mL, 3rd of 3 experiments): 4.004 and 4.008 | FICI (CBD with Spero SPR206 at 4 μg/mL, 1st of 3 experiments): 16 | FICI (CBD with Spero SPR206 at 4 μg/mL, 3rd of 3 experiments): 8 | FICI (CBD with Spero SPR206 at […], 1st of 3 experiments): 0.5156 | CBD MIC with Cefotetan (Cefotetan at 0.015 μg/mL): >32 µg/mL | CBD MIC with Cefotetan (Cefotetan at 0.031 μg/mL): >32 µg/mL | CBD MIC with Cefotetan (Cefotetan at 0.062 μg/mL): >32 µg/mL | CBD MIC with Cefotetan (Cefotetan at 0.25 μg/mL): >32 µg/mL | CBD MIC with Cefotetan (Cefotetan at 0.5 μg/mL): 0.001 µg/mL | CBD MIC with Cefotetan (Cefotetan at […]): >32 µg/mL | MIC (ATCC700603, Octapeptin C4 at 4 μg/mL, read-out: CBD MIC with Octapeptin C4): 1 µg/mL | MIC (ATCC700603, Spero SPR206 at 0.007 μg/mL, 2nd of 3 experiments, read-out: CBD MIC with Spero SPR206): > 256 µg/mL | MIC (ATCC700603, Spero SPR206 at 0.015 μg/mL, 2nd of 3 experiments, read-out: CBD MIC with Spero SPR206): > 256 µg/mL | MIC (ATCC700603, Spero SPR206 at 0.031 μg/mL, 2nd of 3 experiments, read-out: CBD MIC with Spero SPR206): > 256 µg/mL | MIC (ATCC700603, Spero SPR206 at 0.062 μg/mL, 2nd of 3 experiments, read-out: CBD MIC with Spero SPR206): > 256 µg/mL | MIC (ATCC700603, Spero SPR206 at 0.25 μg/mL, 1st of 3 experiments, read-out: CBD MIC with Spero SPR206): 0.001 µg/mL | MIC (ATCC700603, Spero SPR206 at 0.25 μg/mL, 2nd of 3 experiments, read-out: CBD MIC with Spero SPR206): 1 µg/mL | MIC (ATCC700603, Spero SPR206 at 0.25 μg/mL, 3rd of 3 experiments, read-out: CBD MIC with Spero SPR206): > 256 µg/mL | MIC (ATCC700603, Spero SPR206 at 0.5 μg/mL, 1st of 3 experiments, read-out: CBD MIC with Spero SPR206): 0.001 µg/mL | MIC (ATCC700603, Spero SPR206 at 0.5 μg/mL, 3rd of 3 experiments, read-out: CBD MIC with Spero SPR206): > 256 µg/mL | MIC (ATCC700603, Spero SPR206 at 1 μg/mL, 1st of 3 experiments, read-out: CBD MIC with Spero SPR206): 0.001 µg/mL | MIC (ATCC700603, Spero SPR206 at 1 μg/mL, 3rd of 3 experiments, read-out: CBD MIC with Spero SPR206): > 256 µg/mL | MIC (ATCC700603, Spero SPR206 at 2 μg/mL, 1st of 3 experiments, read-out: CBD MIC with Spero SPR206): 0.001 µg/mL | MIC (ATCC700603, Spero SPR206 at 2 μg/mL, 3rd of 3 experiments, read-out: CBD MIC with Spero SPR206): 1 µg/mL | MIC (ATCC700603, Spero SPR206 at 4 μg/mL, 1st of 3 experiments, read-out: CBD MIC with Spero SPR206): 0.001 µg/mL | MIC (ATCC700603, Spero SPR206 at 4 μg/mL, 3rd of 3 experiments, read-out: CBD MIC with Spero SPR206): 0.001 µg/mL | MIC (ATCC700603, read-out: CBD MIC with Spero SPR206, Spero SPR206 at […], 1st of 3 experiments): 4 µg/mL | MIC (ATCC700603, read-out: CBD MIC with Spero SPR206, Spero SPR206 at […], 2nd of 3 experiments): 8 µg/mL | CBD MIC with Octapeptin C4 (Octapeptin C4 at 4 μg/mL, listed as CBD): 0.5 µg/mL | CBD MIC with Spero SPR206 (Spero SPR206 at 2 μg/mL, 3rd of 3 experiments, listed as CBD): 2 µg/mL
